This is an account of results in PMC6195125 (European journal of medicinal chemistry, 2018).

The subject of one data set is HepG2-A16-CD81EGFP cells. Nature of the data set: HepG2 cytotoxicity bioluminescence assay. The format is cell-based, human. To be noted: read-out: HepG2 IC50.
For another data set, the system named is mammalian cell. Conditions: read-out: Cytotoxicity IC50; cited from earlier work.
A further data set has as its system P. falciparum. To be noted: read-out: P. falciparum IC50; in vitro; cited from earlier work.
The next data set deals with P. falciparum Dd2. Nature of the data set: microbe, parasite or virus in culture. The format is cell-based. To be noted: Plasmodium falciparum, DD2, read-out: P.falciparum IC50 PfDd2.
Another data set relates to P. falciparum 3D7. It is filed as cell-based. To be noted: Plasmodium falciparum, 3D7, read-out: P.falciparum IC50 Pf3D7.
The test system of data set [1] is P. falciparum NF54 late stage gametocytes (IV-V). Nature of the data set: Imaging-based viability assay, late stage gametocytes. It is filed as cell-based. Conditions: Plasmodium falciparum, NF54, read-out: Pf LSG inhibition at 40 μM.
The test system of data set [2] is normal human neonatal foreskin fibroblasts (NFFs). Nature of the data set: Cytotoxicity against neonatal foreskin fibroblasts. The format is cell-based. To be noted: Fibroblast, read-out: NFF IC50.
Data set [3] deals with P. falciparum stage V gametocytes. Nature of the data set: ATP bioluminescence assay, mature gametocytes. The format is cell-based, Plasmodium falciparum. Conditions: read-out: Pf stage V gametocytes IC50.
The test system of data set [4] is P. berghei exo-erythrocytic forms (EEF). It is filed as cell-based, Plasmodium berghei. To be noted: read-out: Pb EEF IC50; P. berghei-Luc in HepG2-A16-CD81EGFP cells, 48 h.

Like-named read-outs stand apart in the source and are kept apart here.

One may read the IC50 as the concentration needed to halve the response being measured. With `O=C1C(O)=C([C@H]2CC[C@H](c3ccc(Cl)cc3)CC2)C(=O)c2ccccc21` [ATQ, Atovaquone], the IC50 in the data set with HepG2-A16-CD81EGFP cells (Homo sapiens, HepG2, 48 h) was greater than 500 nM. On to `CCC(=O)CCCCC[C@@H]1NC(=O)[C@H]2CCCCN2C(=O)[C@H]([C@@H](C)CC)NC(=O)[C@H](Cc2cn(OC)c3ccccc23)NC1=O` [Apicidin], for which the results for the half-maximal inhibitory concentration (IC50) in the data set on mammalian cell and with P. falciparum were 50 to 100 nM and 200 nM, respectively. On to `O=C(/C=C/c1cccc(S(=O)(=O)Nc2ccccc2)c1)NO` [Belinostat], for which the 50% inhibitory concentration (IC50) was 1420 to 2370 nM with mammalian cell and 60 to 130 nM in the data set on P. falciparum.

With `CCN(CC)CCCC(C)Nc1ccnc2cc(Cl)ccc12` (centres unmarked) [CQ, chloroquine], the concentration for half-maximal inhibition (IC50) is 49 nM in the data set with P. falciparum Dd2 and 11 nM in the data set with P. falciparum 3D7.

In general, inhibition refers to how much of the control response was suppressed. For the molecule `O=C(CN(Cc1ccc(C(=O)NO)cc1)C(=O)c1cccc2ccccc12)NC1CCCCC1` [Compound 1g], the inhibition at 40 µM in [1] is 97%. In the case of `Cc1ccc(NC(=O)CN(Cc2ccc(C(=O)NO)cc2)C(=O)c2cccc3ccccc23)cc1` [Compound 1k], the IC50 in data set [2] was greater than 10000 nM. Regarding `Cc1[nH]c2ccccc2c1CCNCc1ccc(/C=C/C(=O)NO)cc1` [Panobinostat], the IC50 in the data set with mammalian cell is 70 to 180 nM; in the data set on P. falciparum, 10 to 30 nM. Consider `CC(/C=C/C(=O)NO)=C\[C@@H](C)C(=O)c1ccc(N(C)C)cc1` [Trichostatin A (TSA), Trichostatin A], for which, in the data set on P. falciparum, the IC50 is 8 to 11 nM.

In the case of `CN(C)c1ccc2nc3ccc(N(C)C)cc3[s+]c2c1` [methylene blue], the concentration for half-maximal inhibition (IC50) in data set [3] (Plasmodium falciparum, 48 h) was 210000 nM. As for “Methyl 4-((3,5-dimethyl-N-(2-oxo-2-(p-tolylamino)ethyl)benzamido)methyl)benzoate [Compound 1m]”, the IC50 in [4] was determined as 5550 nM; in data set [3] (ATP assay, 48 h incubation) it was 10100 ± 3720 nM; in the data set with HepG2-A16-CD81EGFP cells (Table 4), 21400 nM; with HepG2-A16-CD81EGFP cells (Table 7 and text, 48 h), 21400 nM.
